Test results from patent US20070248597A1, “Methods of decreasing vascular calcification using IL-1 inhibitors” (priority 2005, published 2007).

Key:
Assay type in all cases: in vivo, rat
5/6 nx uremic rats = test: Aortic calcification (Von Kossa, pathologist score) in 5/6-nephrectomy model of CKD and secondary HPT; conditions: for aortic calcification severity (Von Kossa calcification score): 5/6Nx male SD rats, uremia established 8 weeks, treatment week 4, Fc-IL-1ra 100 mg/kg/day s.c., calcitriol 30 ng
Excerpt: We administered the IL-1 receptor antagonist Fc-IL-1ra, calcitriol, the combination of Fc-IL-1ra+calcitriol) or their corresponding vehicles to a rodent animal model of chronic kidney disease (CKD) and secondary hyperparathyroidism (SHPT) induced by subtotal nephrectomy (5/6Nx). The experimental paradigm is shown in FIG. 5, with the treatment groups set out in Table 2 below.
Aortas were removed at treatment week 4 (trt wk4), fixed and stained for mineralization (Von Kossa) and the severity determined and scored by a pathologist blinded to the treatments (Calcification Scores: 0=no calcification; 1=minimal; 2=mild; 3=moderate; 4=marked; 5=severe).

[1] = test system: adenine-induced CKD/SHPT rats; test: Aortic vascular calcification (bone mineral density of isolated aortas, Dxa scanner) in adenine model of CKD/SHPT
Procedure: (§1) Adenine, included as a dietary supplement (0.75%), was fed to adult, male Sprague-Dawley rats. Blood for chemistry analyses (total serum calcium, phosphorous, blood urea nitrogen [BUN], creatinine, PTH) was collected before and again on drug treatment days 0 (pretreatment) and 21 from the retro-orbital sinus of anesthetized rats. Blood (0.5 ml) was collected for PTH levels into SST (clot activator) brand blood tubes and allowed to clot. Serum was removed and stored at −70° C. until assayed. PTH levels were quantified according to the vendor's instructions using rat PTH (1-34) immunoradiometric assay kit (Immutopics, San Clemente, Calif.). Calcium and phosphorous were measured using a blood chemistry analyzer (AU 400; Olympus, Melville, N.Y.).
Vascular calcification was assessed by quantifying the bone mineral density from fixed (formalin, PBS), isolated aortas using a Dxa scanner (Piximus densitomer, GE Healthcare).

[2] = test system: adenine-induced CKD/SHPT rats; test: Blood chemistry (BUN, creatinine, PTH) in adenine model of CKD/SHPT
Procedure: as §1

[3] = test system: adenine-induced CKD/SHPT rats; test: Parathyroid gland size in adenine model of CKD/SHPT; conditions: FIG. 3A, p=0.009 vs A5S vehicle (n=13 vs n=8)

Row | Compound | aortic calcification severity (Von Kossa calcification score) (5/6 nx uremic rats) | incidence of severe calcification (5/6 nx uremic rats; 5/6Nx uremic rats, treatment week 4, n=8 evaluated) | bone mineral density (aortic calcification) ([1]; adenine diet 0.75%, male Sprague-Dawley rats, Fc-IL-1ra n=7 vs A5S vehicle n=4, p=0.005 unpaired t-test) | development of aortic vascular calcification (bone mineral density content of the aorta) ([1]; adenine model, FIG. 2) | animals with no calcification ([1]; adenine model, Fc-IL-1ra-treated animals) | calcitriol (Vitamin D3)-induced aortic vascular calcification (5/6 nx uremic rats; 5/6Nx rats, Fc-IL-1ra 100 mg/kg/day s.c. + calcitriol 30 ng, week 4, FIG. 6) | BUN [2] | creatinine levels [2] | serum PTH levels ([2]; FIG. 3B, p=0.028 vs A5S vehicle (n=7 vs n=4)) | size of the parathyroid gland [3]
1 | C=C1/C(=C\C=C2/CCC[C@]3(C)[C@@H]([C@H](C)CCCC(C)(C)O)CC[C@@H]23)C[C@@H](O)C[C@@H]1O [calcitriol, 1α, 25-dihydroxycholecalciferol, reference compound] | marked to severe | 50% | – | – | – | – | – | – | – | –
2 | Fc-IL-1ra: molecule having the sequence shown in FIG. 4 (SEQ ID NO: 1); fusion protein comprising IL-1ra; IL-1 receptor antagonist | did not cause vascular calcification | – | 0 g/cm2 | prevented | seven of seven | attenuated | did not affect | did not affect | decreased | reduced
